Assay results: ChEMBL document CHEMBL4251601 (Eur J Med Chem, 2018)

What was measured:
[1] = Clearance in Sprague-Dawley rat at 2 mg/kg, iv administered as single dose by LC-MS/MS analysis; format: ADME, organism-based; details: in vivo
[2] = Volume of distribution at steady state in ICR mouse at 2 mg/kg, iv administered as single dose by LC-MS/MS analysis; format: ADME, organism-based; details: in vivo, read-out: Vdss
[3] = AUC (0 to 24 hrs) in ICR mouse at 2 mg/kg, iv administered as single dose by LC-MS/MS analysis; format: ADME, organism-based; set-up: dose 2 mg/kg, time < 24 hr, route intravenous; details: in vivo
[4] = target: Epidermal growth factor receptor (Homo sapiens) (UniProt P00533); experiment: Inhibition of recombinant human GST-tagged EGFR cytoplasmic domain expressed in baculovirus expression system at 1 uM by TR-FRET assay relative to control
[5] = target: Serine/threonine-protein kinase 26 (Homo sapiens) (UniProt Q9P289); experiment: Inhibition of recombinant human full length GST-tagged MST4 expressed in baculovirus expression system at 0.1 uM by Z'-Lyte assay relative to control
[6] = target: G protein-coupled receptor kinase 4 (Homo sapiens) (UniProt P32298); experiment: Inhibition of recombinant human full length GST-tagged GRK4 expressed in baculovirus expression system at 0.1 uM by Z'-Lyte assay relative to control
[7] = target: Glycogen synthase kinase-3 beta (Homo sapiens) (UniProt P49841); experiment: Inhibition of recombinant human full length His-tagged GSK3beta expressed in baculovirus expression system at 0.1 uM by Z'-Lyte assay relative to control
[8] = target: Hepatocyte growth factor receptor (Homo sapiens) (UniProt P08581); experiment: Inhibition of recombinant human His-tagged c-Met cytoplasmic domain expressed in baculovirus expression system at 1 uM by Z'-Lyte assay relative to control
[9] = target: cAMP-dependent protein kinase catalytic subunit alpha (Homo sapiens) (UniProt P17612); experiment: Inhibition of recombinant human His-tagged PKA expressed in Escherichia coli at 0.1 uM by Z'-Lyte assay relative to control
[10] = tested on: Proto-oncogene tyrosine-protein kinase receptor Ret (Homo sapiens), P07949 [V804L]; experiment: Inhibition of recombinant human GST-tagged RET V804L mutant expressed in baculovirus expression system at 1 uM by Z'-Lyte assay relative to control
[11] = target: Insulin receptor (Homo sapiens) (UniProt P06213); experiment: Inhibition of recombinant human GST-tagged INSR cytoplasmic domain expressed in baculovirus expression system at 0.1 uM by Z'-Lyte assay relative to control
[12] = target: Leucine-rich repeat serine/threonine-protein kinase 2 (Homo sapiens) (UniProt Q5S007); experiment: Inhibition of recombinant human GST-tagged LRRK2 (970 to 2527 residues) expressed in baculovirus expression system at 1 uM by TR-FRET assay relative to control
[13] = target: Tyrosine-protein kinase Lyn (Homo sapiens) (UniProt P07948); experiment: Inhibition of recombinant human full length GST-tagged Lyn-A expressed in insect cells at 0.1 uM by Z'-Lyte assay relative to control
[14] = AUC (0 to infinity) in ICR mouse at 2 mg/kg, iv administered as single dose by LC-MS/MS analysis; format: ADME, organism-based; set-up: dose 2 mg/kg, time infinity, route intravenous; details: in vivo
[15] = target: Casein kinase I isoform alpha (Homo sapiens) (UniProt P48729); experiment: Inhibition of recombinant full length human GST-tagged CK1alpha expressed in baculovirus expression system at 0.1 uM by Z'-Lyte assay relative to control
[16] = target: Aurora kinase A (Homo sapiens) (UniProt O14965); experiment: Inhibition of recombinant full length human His-tagged AURKA expressed in baculovirus expression system at 0.1 uM by Z'-Lyte assay relative to control
[17] = target: Aurora kinase B (Homo sapiens) (UniProt Q96GD4); experiment: Inhibition of recombinant full length human His-tagged AURKB expressed in baculovirus expression system at 0.1 uM by Z'-Lyte assay relative to control
[18] = target: Mitogen-activated protein kinase 1 (Homo sapiens) (UniProt P28482); experiment: Inhibition of recombinant human full length GST-tagged ERK2 expressed in Escherichia coli at 0.1 uM by Z'-Lyte assay relative to control
[19] = AUC (0 to 24 hrs) in Sprague-Dawley rat at 2 mg/kg, iv administered as single dose by LC-MS/MS analysis; format: ADME, organism-based; set-up: dose 2 mg/kg, time < 24 hr, route intravenous; details: in vivo
[20] = target: Aurora kinase B (Homo sapiens) (UniProt Q96GD4); experiment: Inhibition of recombinant full length human His-tagged AURKB expressed in baculovirus expression system at 1 uM by Z'-Lyte assay relative to control
[21] = target: Beta-adrenergic receptor kinase 1 (Homo sapiens) (UniProt P25098); experiment: Inhibition of recombinant human full length His-tagged GRK2 expressed in baculovirus expression system at 1 uM by Z'-Lyte assay relative to control
[22] = target: MAP kinase-activated protein kinase 2 (Homo sapiens) (UniProt P49137); experiment: Inhibition of recombinant human full length His-tagged MK2 expressed in Escherichia coli at 1 uM by Z'-Lyte assay relative to control
[23] = Volume of distribution at steady state in Sprague-Dawley rat at 2 mg/kg, iv administered as single dose by LC-MS/MS analysis; format: ADME, organism-based; details: in vivo, read-out: Vdss
[24] = Unbound Cmax in CD-1 mouse brain at 10 mg/kg, po administered as single dose by LC-MS/MS analysis; format: ADME, organism-based; details: in vivo
[25] = target: Serine/threonine-protein kinase PAK 1 (Homo sapiens) (UniProt Q13153); experiment: Inhibition of recombinant human full length GST-tagged PAK1 expressed in baculovirus expression system at 0.1 uM by Z'-Lyte assay relative to control
[26] = target: Serine/threonine-protein kinase PLK1 (Homo sapiens) (UniProt P53350); experiment: Inhibition of recombinant human full length His-tagged PLK1 expressed in baculovirus expression system at 0.1 uM by Z'-Lyte assay relative to control
[27] = target: Tyrosine-protein kinase JAK2 (Homo sapiens) (UniProt O60674); experiment: Inhibition of recombinant human GST-tagged JAK2 expressed in baculovirus expression system at 1 uM by TR-FRET assay relative to control
[28] = target: Proto-oncogene tyrosine-protein kinase receptor Ret (Homo sapiens) (UniProt P07949); experiment: Inhibition of recombinant human GST-tagged RET cytoplasmic domain (658 to 1114 residues) expressed in baculovirus expression system at 1 uM by Z'-Lyte assay relative to control
[29] = target: Tyrosine-protein kinase Lck (Homo sapiens) (UniProt P06239); experiment: Inhibition of recombinant human full length His-tagged LCK expressed in baculovirus expression system at 0.1 uM by Z'-Lyte assay relative to control
[30] = target: Tyrosine-protein kinase Srms (Homo sapiens) (UniProt Q9H3Y6); experiment: Inhibition of recombinant human full length GST-tagged SRMS expressed in baculovirus expression system at 0.1 uM by TR-FRET assay relative to control
[31] = AUC (0 to 48 hrs) in CD-1 mouse plasma at 10 mg/kg, po administered as single dose by LC-MS/MS analysis; format: ADME, organism-based; set-up: time < 48 hr, dose 10 mg/kg, route oral
U-87 MG = experiment: Antitumor activity against luciferase-fused human U87MG cells orthotopically xenografted in nude mouse assessed as increase in mouse life span at 12.5 mg/kg, po qd for 5 weeks relative to control; format: functional, U-87MG ATCC; details: 840 h

Aurora kinase B (Homo sapiens), sequence (Q96GD4 whole entry): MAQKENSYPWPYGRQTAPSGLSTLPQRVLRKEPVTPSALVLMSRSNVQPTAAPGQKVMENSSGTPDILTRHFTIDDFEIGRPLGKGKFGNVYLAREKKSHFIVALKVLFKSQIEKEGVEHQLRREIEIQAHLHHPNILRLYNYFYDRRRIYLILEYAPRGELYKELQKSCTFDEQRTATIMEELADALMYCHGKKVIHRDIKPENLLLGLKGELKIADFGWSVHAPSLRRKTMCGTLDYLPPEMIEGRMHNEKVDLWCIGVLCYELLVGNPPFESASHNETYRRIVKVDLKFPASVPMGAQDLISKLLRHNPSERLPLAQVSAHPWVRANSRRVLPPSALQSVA
Epidermal growth factor receptor (Homo sapiens), sequence (P00533 whole entry, the tested form may be a part): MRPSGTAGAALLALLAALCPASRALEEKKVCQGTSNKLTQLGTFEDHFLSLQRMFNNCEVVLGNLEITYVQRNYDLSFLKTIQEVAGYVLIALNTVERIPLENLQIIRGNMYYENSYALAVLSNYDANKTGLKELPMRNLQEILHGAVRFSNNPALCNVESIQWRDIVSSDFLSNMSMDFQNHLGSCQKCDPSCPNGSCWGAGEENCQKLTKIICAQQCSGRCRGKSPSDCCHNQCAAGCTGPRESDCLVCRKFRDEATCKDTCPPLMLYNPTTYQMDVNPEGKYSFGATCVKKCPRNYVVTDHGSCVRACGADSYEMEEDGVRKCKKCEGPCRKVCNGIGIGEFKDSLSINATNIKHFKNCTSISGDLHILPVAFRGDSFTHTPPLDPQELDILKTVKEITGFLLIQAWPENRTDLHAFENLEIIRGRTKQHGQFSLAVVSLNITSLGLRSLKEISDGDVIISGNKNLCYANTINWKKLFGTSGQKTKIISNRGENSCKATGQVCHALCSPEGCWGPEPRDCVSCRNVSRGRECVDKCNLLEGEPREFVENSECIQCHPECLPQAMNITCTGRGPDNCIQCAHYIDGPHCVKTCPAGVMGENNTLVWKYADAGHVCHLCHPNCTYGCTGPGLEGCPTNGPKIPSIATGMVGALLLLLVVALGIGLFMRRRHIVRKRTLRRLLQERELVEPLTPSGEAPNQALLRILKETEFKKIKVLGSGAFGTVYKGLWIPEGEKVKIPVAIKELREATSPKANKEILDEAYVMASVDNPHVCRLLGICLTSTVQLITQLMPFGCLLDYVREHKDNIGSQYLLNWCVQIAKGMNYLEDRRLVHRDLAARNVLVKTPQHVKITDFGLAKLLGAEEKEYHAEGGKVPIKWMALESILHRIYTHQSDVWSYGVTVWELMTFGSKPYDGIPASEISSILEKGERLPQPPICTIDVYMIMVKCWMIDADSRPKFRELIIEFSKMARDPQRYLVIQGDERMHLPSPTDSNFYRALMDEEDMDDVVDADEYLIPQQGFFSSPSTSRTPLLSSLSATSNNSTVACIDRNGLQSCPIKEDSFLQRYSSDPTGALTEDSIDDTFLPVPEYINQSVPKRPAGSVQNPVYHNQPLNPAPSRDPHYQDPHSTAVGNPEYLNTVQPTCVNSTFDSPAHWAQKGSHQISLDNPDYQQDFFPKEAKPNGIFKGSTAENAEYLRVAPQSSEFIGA
Tyrosine-protein kinase Lyn (Homo sapiens), sequence (P07948 2-512 limits assumed): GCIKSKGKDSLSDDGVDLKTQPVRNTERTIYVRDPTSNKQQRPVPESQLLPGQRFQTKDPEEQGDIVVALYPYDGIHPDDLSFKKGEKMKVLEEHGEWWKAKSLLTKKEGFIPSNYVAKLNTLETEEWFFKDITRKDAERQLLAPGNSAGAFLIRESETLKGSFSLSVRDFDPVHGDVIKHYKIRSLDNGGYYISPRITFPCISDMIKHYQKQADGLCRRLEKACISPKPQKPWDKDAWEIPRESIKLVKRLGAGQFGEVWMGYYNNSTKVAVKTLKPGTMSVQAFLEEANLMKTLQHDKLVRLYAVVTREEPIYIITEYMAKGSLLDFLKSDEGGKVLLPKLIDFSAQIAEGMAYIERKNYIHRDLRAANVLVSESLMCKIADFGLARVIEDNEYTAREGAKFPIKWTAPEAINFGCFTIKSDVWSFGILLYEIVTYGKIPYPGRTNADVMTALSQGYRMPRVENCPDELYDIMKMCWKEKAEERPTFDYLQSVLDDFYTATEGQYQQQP
Insulin receptor (Homo sapiens), sequence (P06213 28-758 limits assumed): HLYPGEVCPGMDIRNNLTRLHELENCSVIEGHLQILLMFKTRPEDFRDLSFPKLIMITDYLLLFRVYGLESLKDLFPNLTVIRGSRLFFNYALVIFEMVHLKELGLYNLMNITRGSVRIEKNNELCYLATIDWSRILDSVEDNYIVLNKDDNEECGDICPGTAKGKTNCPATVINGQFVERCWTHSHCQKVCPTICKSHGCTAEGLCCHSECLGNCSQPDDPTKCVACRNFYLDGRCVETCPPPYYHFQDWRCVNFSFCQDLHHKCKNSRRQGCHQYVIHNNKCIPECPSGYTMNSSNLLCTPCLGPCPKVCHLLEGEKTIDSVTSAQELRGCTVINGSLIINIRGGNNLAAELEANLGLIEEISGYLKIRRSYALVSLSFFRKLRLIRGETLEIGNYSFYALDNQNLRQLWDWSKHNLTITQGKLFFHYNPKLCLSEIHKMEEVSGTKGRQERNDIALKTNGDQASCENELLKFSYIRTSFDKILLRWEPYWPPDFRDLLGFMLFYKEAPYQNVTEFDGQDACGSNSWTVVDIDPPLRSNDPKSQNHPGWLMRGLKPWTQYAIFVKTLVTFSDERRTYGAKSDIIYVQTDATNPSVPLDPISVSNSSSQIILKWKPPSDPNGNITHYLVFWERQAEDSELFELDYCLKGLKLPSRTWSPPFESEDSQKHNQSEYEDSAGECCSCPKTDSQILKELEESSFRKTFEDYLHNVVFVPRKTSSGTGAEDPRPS
Insulin receptor (Homo sapiens), sequence (P06213 763-1382 limits assumed): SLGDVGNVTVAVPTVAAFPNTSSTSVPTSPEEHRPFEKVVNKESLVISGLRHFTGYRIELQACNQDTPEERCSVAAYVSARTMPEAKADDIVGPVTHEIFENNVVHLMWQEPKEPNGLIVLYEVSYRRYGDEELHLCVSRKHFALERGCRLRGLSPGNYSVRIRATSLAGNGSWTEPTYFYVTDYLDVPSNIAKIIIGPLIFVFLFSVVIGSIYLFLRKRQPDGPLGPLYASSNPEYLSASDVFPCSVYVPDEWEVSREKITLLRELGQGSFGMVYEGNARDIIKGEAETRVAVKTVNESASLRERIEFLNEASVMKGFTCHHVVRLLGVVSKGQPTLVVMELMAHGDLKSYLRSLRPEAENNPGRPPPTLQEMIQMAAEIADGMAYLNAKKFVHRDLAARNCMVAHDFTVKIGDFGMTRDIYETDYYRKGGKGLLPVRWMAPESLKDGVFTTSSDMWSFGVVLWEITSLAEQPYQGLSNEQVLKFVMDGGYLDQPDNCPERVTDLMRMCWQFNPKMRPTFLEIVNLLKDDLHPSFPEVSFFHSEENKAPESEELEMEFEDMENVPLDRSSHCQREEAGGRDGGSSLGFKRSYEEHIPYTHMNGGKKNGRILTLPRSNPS
Serine/threonine-protein kinase 26 (Homo sapiens), sequence (Q9P289 2-416 limits assumed): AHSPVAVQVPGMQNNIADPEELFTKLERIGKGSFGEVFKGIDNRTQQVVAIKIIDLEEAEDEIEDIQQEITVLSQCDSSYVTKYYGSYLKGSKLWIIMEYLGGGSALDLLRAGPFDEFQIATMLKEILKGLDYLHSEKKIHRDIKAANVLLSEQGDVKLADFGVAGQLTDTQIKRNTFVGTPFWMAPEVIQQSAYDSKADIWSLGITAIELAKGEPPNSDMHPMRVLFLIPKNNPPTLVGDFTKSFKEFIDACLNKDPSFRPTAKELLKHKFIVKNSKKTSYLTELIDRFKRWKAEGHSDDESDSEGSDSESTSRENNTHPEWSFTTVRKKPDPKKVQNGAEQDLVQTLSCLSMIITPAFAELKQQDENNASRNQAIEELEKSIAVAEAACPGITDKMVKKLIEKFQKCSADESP
Proto-oncogene tyrosine-protein kinase receptor Ret (Homo sapiens), P07949 [V804L], sequence (P07949 whole entry V804L, the tested form may be a part): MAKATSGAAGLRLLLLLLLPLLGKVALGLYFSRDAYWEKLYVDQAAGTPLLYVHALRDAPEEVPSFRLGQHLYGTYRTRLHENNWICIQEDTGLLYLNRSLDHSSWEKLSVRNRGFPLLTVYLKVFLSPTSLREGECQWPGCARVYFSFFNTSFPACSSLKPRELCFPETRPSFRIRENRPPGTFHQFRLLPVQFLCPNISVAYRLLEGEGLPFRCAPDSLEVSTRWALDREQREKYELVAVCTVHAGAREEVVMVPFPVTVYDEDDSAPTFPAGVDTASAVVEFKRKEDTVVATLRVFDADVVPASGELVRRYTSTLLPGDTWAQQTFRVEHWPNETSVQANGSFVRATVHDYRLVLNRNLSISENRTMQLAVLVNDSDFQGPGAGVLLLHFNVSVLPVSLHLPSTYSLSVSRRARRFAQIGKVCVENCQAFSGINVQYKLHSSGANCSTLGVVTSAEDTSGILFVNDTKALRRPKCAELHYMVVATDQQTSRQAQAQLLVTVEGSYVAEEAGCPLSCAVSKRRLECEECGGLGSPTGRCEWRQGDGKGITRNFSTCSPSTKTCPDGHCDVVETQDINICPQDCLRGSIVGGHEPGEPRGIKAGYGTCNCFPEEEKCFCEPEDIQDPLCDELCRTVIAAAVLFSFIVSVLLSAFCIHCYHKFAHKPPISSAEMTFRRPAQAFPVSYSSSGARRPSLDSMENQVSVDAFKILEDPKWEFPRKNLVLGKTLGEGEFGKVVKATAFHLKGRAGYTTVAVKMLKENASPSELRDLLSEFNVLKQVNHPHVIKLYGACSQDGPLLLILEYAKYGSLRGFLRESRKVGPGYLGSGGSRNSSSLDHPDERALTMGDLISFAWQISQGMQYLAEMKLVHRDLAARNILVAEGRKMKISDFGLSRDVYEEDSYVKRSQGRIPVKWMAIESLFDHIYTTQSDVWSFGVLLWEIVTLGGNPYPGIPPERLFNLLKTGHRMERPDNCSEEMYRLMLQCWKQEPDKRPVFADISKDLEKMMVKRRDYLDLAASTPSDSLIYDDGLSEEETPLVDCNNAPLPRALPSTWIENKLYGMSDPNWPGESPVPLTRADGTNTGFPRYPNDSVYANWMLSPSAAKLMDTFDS
Proto-oncogene tyrosine-protein kinase receptor Ret (Homo sapiens), sequence (P07949 whole entry, the tested form may be a part): as the sequence (P07949 whole entry V804L, the tested form may be a part) above, with L804V counted along it

SMILES: CC1=Nc2c(F)cc(-c3nc(Nc4ccc(C5CCN(C)CC5)cn4)ncc3F)cc2C12CCCC2 [CROZBACICLIB]
- clearance [1]: 34.9 mL/min/kg
- Vd [2]: 17.8 L/kg
- AUC(0-t) at 24 h [3]: 1140 ng·h/mL
- inhibition [4]: 31%
- inhibition [5]: -5%
- inhibition [6]: 0%
- inhibition [7]: 12%
- inhibition [8]: 87%
- inhibition [9]: 0%
- inhibition [10]: 16%
- inhibition [11]: 2%
- inhibition [12]: 34%
- inhibition [13]: 0%
- AUC(0-inf) [14]: 1330 ng·h/mL
- inhibition [15]: -3%
- inhibition [16]: -2%
- inhibition [17]: 0%
- inhibition [18]: 0%
- AUC(0-t) at 24 h [19]: 886 ng·h/mL
- inhibition [20]: 6%
- inhibition [21]: -1%
- inhibition [22]: -1%
- Vd [23]: 17.4 L/kg
- fCmax [24]: 1.03 ng/g
- inhibition [25]: -2%
- inhibition [26]: -3%
- inhibition [27]: 64%
- inhibition [28]: 10%
- inhibition [29]: 3%
- inhibition [30]: 20%
- AUC(0-t) at 48 h [31]: 9060 ng·h/mL
- ILS at 12.5 mg/kg (U-87 MG): 48%
